≈ marks a conversion by molar mass, not a printed value. Where two headings read alike, the source gives them in different places. Marks after values point to notes of the source that are not given here. One block for each compound: values may come before it.
Experiments:
Reducing power assay = conditions: mean ± SD, n = 3
Protocol: The reducing capacity of the crude extracts was estimated as described by Pereira et al. (2013). Fifty microliters of the crude extracts were mixed with fifty microliters of sodium phosphate buffer (0.2 M, pH 6.6). After serial dilution, a potassium hexacyanoferrate (1% aqueous, 50 μL) solution was added. A trichloroacetic acid (10%, 50 μL) solution was added after 20 min of incubation at 50 °C. Eighty microliters of each mixture was moved to another 96-well plate containing eighty microliters of distilled water. […] All the crude extracts were tested in triplicate.

[1] = DPPH free radical scavenging assay; conditions: mean ± SD, n = 3
Protocol: The DPPH free radical scavenging ability was evaluated for the crude extracts using the DPPH (2,2-diphenyl-1-picrylhydrazyl) assay using a modified spectrophotometric method of Motamed and Naghibi (2010) [81]. The crude extracts (100 µL) were added to a 96-well plate containing distilled water (100 µL). After serial dilution, a 0.3 M DPPH/methanol (200 µL) solution was added to the mixture. The mixture was left at room temperature for 30 min, and the absorbance was measured using a SoftMax^R Pro 6 (version 6.3) microplate reader at 517 nm. All the crude extracts were tested in triplicate.
The percentage of radical scavenging was calculated by the following formula:% Free RSA = [(ADPPH − Asample)/(ADPPH)] × 100(2) where ADPPH is the absorbance of the DPPH solution and Asample is the absorbance of the samples and DPPH. The ability of the crude extracts to inhibit 50% of the free radical (IC50) was extrapolated from a graph of % RSA against concentration.

[2] = cited from earlier work
[3] = cited from earlier work; remark: listed apart in the source
[4] = set-up: method as in earlier work; conditions: ref 65 (Gülçin et al. 2012); cited from earlier work
[5] = set-up: method as in earlier work; conditions: ref 65 (Gülçin et al. 2012); cited from earlier work; remark: listed apart in the source
Vero cells = experiment: MTT cytotoxicity assay; type: cell-based, African green monkey; conditions: Chlorocebus sabaeus, 48 h, Vero monkey kidney cells, two days incubation, mean ± SD, n = 3
Protocol: African green monkey (Vero) kidney cells (ATCC CCL-81, Cellonex, Johannesburg, South Africa) were cultured in Minimal Essential Medium (MEM), which consisted of Earle’s Balanced Salt Solution (EBSS) and L-Glutamine (2.0 mM) (Cytiva Hyclone, Marlborough, MA, USA) and was supplemented with 10% fetal bovine serum (FBS) and 1% penicillin/streptomycin (P/S, Biowest, Nuaille, France). These cells were incubated for 48 h at 37 °C in a 95% air and 5% CO2 humidified incubator (Nϋve, Ankara, Turkey). The cells were trypsinized with 0.25% trypsin/EDTA (Cytiva Hyclone, Marlborough, MA, USA) and split at a ratio of 1:5 for further passaging at 70 to 80% confluency. […]
The 3-(4,5-dimethylthiazol-2-yl)-2,5-diphenyltetrazolium bromide (MTT) cytotoxicity assay was determined as described by Mariri et al. (2024). The cytotoxic effects of the crude extracts of Lippia multiflora were evaluated against Vero cells. […] The mixture was kept in the dark for 15 min, and the absorbance was measured spectrophotometrically at 570 nm on a SpectraMax iD3 multi-mode microplate reader (Winooski, VT, USA). The cell viability was calculated as the percentage (%) of negative control (0.5% dimethyl sulfoxide; see Equation (3)).
The extracts were calculated using the following equation:(3) Cell viability%=Abssample−AbsBlank/Absnegative control−AbsBlank×100 where Abs is the absorbance.

DPPH IC50 [1]: 44.308 ± 9.813 ^b µg/mL
SMILES: O=C1O[C@H]([C@@H](O)CO)C(O)=C1O [Ascorbic acid, ascorbic acid]
Reducing Power IC0.5 (Reducing power assay): 0.355 ± 0.393 ^a µg/mL

SMILES: COc1ccc(-c2coc3cc(O[C@@H]4O[C@H](CO)[C@@H](O)[C@H](O)[C@H]4O)ccc3c2=O)cc1 [Compound 8, Formononetin-7-O-glucoside (Ononin)]
DPPH radical IC50 ([2]; ref 62 (Zgórka et al. 2022)): 30.18 ± 0.37 µg/mL
ABTS radical IC50 ([3]; ref 62 (Zgórka et al. 2022)): 30.30 ± 0.18 µg/mL

SMILES: C[C@@H]1O[C@@H](Oc2c(-c3ccc(O)c(O)c3)oc3cc(O)cc(O)c3c2=O)[C@H](O)[C@H](O)[C@H]1O [Compound 10, Quercitrin]
DPPH radical scavenging IC50 ([2]; isolated from ethyl acetate stem of Lippia graveolens, ref 70 (González Güereca et al. 2007)): 11.24 ± 1.10 µg/mL

SMILES: CCCCC[C@H](O)CC(=O)CCc1ccc(O)c(OC)c1 [Compound 11, 6-Gingerol]
DPPH radical scavenging EC50 ([2]; isolated from rhizome of Zingiber officinale, ref 67 (Wang et al. 2003)): 23.07 µg/mL

SMILES: Oc1cc(O)c2c(c1)O[C@H](c1cc(O)c(O)c(O)c1)[C@H](O)C2 [Compound 14, (−)-Epigallocatechin]
DPPH radical scavenging IC50 ([2]; from Japanese knotweed rhizome bark extract, ref 64 (Jug et al. 2021)): 1.5 µg/mL^−1

SMILES: COC(=O)C1=COC(C)C2CN3CCC4(C(=O)Nc5c4ccc(OC)c5OC)C3CC12 (stereo not drawn) [Compound 15, Isomajdine]
Ferrous ion (Fe^2+) chelating activity EC50 [4]: 10.05 µg/mL
DMPD scavenging EC50 [5]: 32.09 µg/mL
ABTS scavenging EC50 ([3]; ref 65 (Gülçin et al. 2012)): 34.11 µg/mL

SMILES: COc1cccc2c1C(=O)c1c(O)c3c(c(O)c1C2=O)C[C@@](O)(C(=O)CO)C[C@@H]3O[C@H]1C[C@H](N)[C@H](O)[C@H](C)O1 [Doxorubicin]
IC50 (Vero cells): 4.97 ± 0.83 µg/mL (≈ 9.14 µM)

DPPH IC50 [1]: 37.340 ± 17.529 ^ab µg/mL
SMILES: O=C(O)c1cc(O)c(O)c(O)c1 [Gallic acid, gallic acid]
Reducing Power IC0.5 (Reducing power assay): 8.210 ± 11.257 ^a µg/mL

DPPH IC50 [1]: 37.361 ± 21.356 ^b µg/mL
SMILES: O=c1c(O)c(-c2ccc(O)c(O)c2)oc2cc(O)cc(O)c12 [Quercetin, quercetin]
Reducing Power IC0.5 (Reducing power assay): 3.760 ± 2.979 ^a µg/mL
